{"source": "patent US20260294995A1", "about": "“COMPOSITION FOR ORAL USE WITH HMG-COA REDUCTASE ENZYME INHIBITING ACTIVITY” (DIFASS INTERNATIONAL S.P.A., priority 2023, published 2026)", "key": {"[1]": {"biological_target": "T1, HMG-CoA reductase (Homo sapiens, UniProt P04035)", "T1 construct": "oxidation of NADPH by the catalytic subunit of HMG-CoA reductase; purchased", "T1 sequence (P04035 426-888 limits assumed)": "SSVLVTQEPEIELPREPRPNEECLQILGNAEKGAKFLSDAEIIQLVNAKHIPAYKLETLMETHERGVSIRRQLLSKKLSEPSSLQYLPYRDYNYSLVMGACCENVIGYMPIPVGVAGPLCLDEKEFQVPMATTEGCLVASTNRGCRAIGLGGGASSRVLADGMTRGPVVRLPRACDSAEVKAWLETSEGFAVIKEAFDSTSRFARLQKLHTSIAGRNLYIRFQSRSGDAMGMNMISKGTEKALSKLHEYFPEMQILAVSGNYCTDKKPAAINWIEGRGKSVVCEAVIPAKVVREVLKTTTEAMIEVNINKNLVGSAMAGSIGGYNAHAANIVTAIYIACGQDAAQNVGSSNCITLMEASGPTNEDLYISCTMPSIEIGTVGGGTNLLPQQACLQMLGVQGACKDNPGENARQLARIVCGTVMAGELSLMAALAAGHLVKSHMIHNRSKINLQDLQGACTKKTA", "test": "HMG-CoA reductase inhibition, spectrophotometric (absorbance at 340 nm, oxidation of NADPH)", "format": "biochemical", "conditions": "for Percentage inhibition HMGR: positive control", "procedure": "The screening was performed with an analysis kit that evaluates inhibition of HMG-CoA reductase. The assay was based on spectrophotometric measurement of the reduction of absorbance at 340 nm, which represents oxidation of NADPH by the catalytic subunit of HMG-CoA reductase in the presence of the HMG-COA substrate. The reaction is as follows: HMG-CoA+2NADPH+2H^+ ? mevalonate+2NADP^++CoA-SH. Modulation of the activity of the enzyme, and in particular its inhibition, was calculated as % variation relative to the activity measured under the control condition, i.e. in the absence of any inhibitor. The biochemical system was verified with the use of a positive control, pravastatin, at the doses of 212.5 mg (100 mM), 80 mg, 40 mg and 20 mg.\nA first test session was conducted with pravastatin as positive control at the theoretical concentration calculated as administration dose in the systemic circulation (5 L, mean blood volume of an adult weighing about 70 kg);\nEach test was conducted in triplicate, and the compounds were tested at different concentrations. […]"}, "[2]": {"conditions": "250 mg daily for three months, patients with metabolic syndrome; cited from earlier work"}, "[3]": {"conditions": "2022 meta-analysis; dose an essential factor; cited from earlier work"}, "[4]": {"biological_target": "T2, HMG-CoA reductase (Homo sapiens, UniProt P04035)", "T2 sequence (P04035 1-888)": "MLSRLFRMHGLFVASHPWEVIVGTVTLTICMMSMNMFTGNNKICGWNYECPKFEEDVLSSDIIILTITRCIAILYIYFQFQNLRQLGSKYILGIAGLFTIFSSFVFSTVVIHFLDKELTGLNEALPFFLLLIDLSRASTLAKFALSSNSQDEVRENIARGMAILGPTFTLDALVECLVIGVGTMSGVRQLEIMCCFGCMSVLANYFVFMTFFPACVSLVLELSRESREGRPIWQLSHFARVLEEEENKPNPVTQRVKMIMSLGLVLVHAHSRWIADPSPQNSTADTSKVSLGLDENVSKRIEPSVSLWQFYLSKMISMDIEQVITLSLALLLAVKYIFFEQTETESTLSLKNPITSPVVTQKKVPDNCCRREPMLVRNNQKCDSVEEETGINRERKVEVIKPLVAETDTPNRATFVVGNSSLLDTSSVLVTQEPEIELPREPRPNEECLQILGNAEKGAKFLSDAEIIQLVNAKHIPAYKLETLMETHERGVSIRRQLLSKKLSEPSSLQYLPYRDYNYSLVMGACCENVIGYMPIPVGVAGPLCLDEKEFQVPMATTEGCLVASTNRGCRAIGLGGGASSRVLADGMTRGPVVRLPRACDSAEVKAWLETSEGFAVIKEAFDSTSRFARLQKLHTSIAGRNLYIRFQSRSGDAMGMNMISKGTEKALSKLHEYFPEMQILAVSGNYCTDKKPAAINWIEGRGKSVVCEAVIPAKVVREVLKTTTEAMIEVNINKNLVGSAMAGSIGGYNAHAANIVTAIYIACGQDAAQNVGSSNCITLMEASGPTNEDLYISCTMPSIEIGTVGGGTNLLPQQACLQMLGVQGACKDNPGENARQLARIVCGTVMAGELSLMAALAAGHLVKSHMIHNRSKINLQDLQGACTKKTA", "conditions": "10 μg/mL; compared with pravastatin; cited from earlier work"}, "[5]": {"conditions": "oral doses from 100 mg to 2800 mg; cited from earlier work"}, "[6]": {"biological_target": "T3, HMG-CoA reductase (Rattus norvegicus, UniProt P51639)", "T3 construct": "in an in vitro model with glial cells; host or cells: C6 glioma cells (endogenous enzyme, inferred)", "T3 sequence (P51639 1-887)": "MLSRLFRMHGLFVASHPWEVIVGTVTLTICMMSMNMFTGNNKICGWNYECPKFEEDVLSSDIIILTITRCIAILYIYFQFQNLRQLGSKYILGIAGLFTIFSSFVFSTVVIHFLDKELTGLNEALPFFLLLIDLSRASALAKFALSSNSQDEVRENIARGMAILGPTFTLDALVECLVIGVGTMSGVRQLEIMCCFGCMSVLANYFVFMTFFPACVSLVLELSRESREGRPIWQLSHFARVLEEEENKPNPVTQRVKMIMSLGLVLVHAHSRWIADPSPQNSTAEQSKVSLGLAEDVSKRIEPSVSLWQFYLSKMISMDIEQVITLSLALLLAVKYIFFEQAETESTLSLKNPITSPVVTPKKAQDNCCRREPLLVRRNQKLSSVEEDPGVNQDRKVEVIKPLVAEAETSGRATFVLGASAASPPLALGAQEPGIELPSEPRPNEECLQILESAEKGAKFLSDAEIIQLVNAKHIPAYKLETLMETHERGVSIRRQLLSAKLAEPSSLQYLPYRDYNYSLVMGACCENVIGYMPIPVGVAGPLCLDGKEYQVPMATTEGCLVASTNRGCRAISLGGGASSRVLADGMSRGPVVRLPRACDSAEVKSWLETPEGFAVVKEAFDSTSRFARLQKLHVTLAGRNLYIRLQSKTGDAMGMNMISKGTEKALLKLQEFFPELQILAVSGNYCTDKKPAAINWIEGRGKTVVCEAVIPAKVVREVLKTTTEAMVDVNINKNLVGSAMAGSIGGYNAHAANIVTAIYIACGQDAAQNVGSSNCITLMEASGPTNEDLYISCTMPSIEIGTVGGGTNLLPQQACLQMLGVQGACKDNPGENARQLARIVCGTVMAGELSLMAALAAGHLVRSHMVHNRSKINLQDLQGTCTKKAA", "conditions": "25 μM; glial cells; cited from earlier work"}, "[7]": {"system": "HMG-COA reductase", "conditions": "rat hepatocytes, in vitro; cited from earlier work"}}, "data": [{"smiles": "CC[C@H](C)C(=O)O[C@H]1C[C@H](O)C=C2C=C[C@H](C)[C@H](CC[C@@H](O)C[C@@H](O)CC(=O)O)[C@H]21", "note": "[Pravastatin, pravastatin]", "values": [{"measurement": "Percentage inhibition HMGR", "setting": "[1]; 20 mg (theoretical concentration of dose in 5 L blood)", "result": 56.3, "unit": "%"}, {"measurement": "Percentage inhibition HMGR", "setting": "[1]; 40 mg (theoretical concentration of dose in 5 L blood)", "result": 68.9, "unit": "%"}, {"measurement": "Percentage inhibition HMGR", "setting": "[1]; 80 mg (theoretical concentration of dose in 5 L blood)", "result": 85.9, "unit": "%"}]}, {"smiles": "Oc1ccc(C=Cc2cc(O)cc(O)c2)cc1", "note": "[Resveratrol, resveratrol]", "values": [{"measurement": "total cholesterol level", "setting": "[2]", "result": "reduces the total cholesterol level"}, {"measurement": "inhibition at 0.0102 µg/mL", "setting": "[1]; Test 1, 0.0102 μg/ml, 1:200 dilution, oral dose 10 mg, read-out: Percentage inhibition HMGR", "result": 0, "unit": "%"}, {"measurement": "total cholesterol and LDL cholesterol levels", "setting": "[3]", "result": "can be useful to reduce total cholesterol and LDL cholesterol levels"}]}, {"smiles": "O=C(O)[C@H]1O[C@@H](Oc2cc3oc(-c4ccccc4)cc(=O)c3c(O)c2O)[C@H](O)[C@@H](O)[C@@H]1O", "note": "[baicalin]", "values": [{"measurement": "HMG-COA reductase inhibitory activity", "setting": "[4]", "result": "lower than with pravastatin"}, {"measurement": "proportionality in absorption depending on the oral dose", "setting": "[5]", "result": "did not indicate a proportionality in absorption"}]}, {"smiles": "OCCc1ccc(O)c(O)c1", "note": "[hydroxytyrosol]", "values": [{"measurement": "reduction of HMG-COA reductase activity", "setting": "[6]", "result": 16, "unit": "%"}, {"measurement": "synthesis of fatty acids and cholesterol", "setting": "[6]", "result": "downregulating effect"}]}, {"smiles": "C/C=C1/[C@H](O[C@@H]2O[C@H](CO)[C@@H](O)[C@H](O)[C@H]2O)OC=C(C(=O)OC)[C@H]1CC(=O)OCCc1ccc(O)c(O)c1", "note": "[oleuropein]", "values": [{"measurement": "activity of HMG-COA reductase", "setting": "[7]", "result": "reduces the activity of hydroxymethylglutaryl-CoA reductase"}, {"measurement": "cholesterol synthesis", "setting": "[7]", "result": "reduction in cholesterol synthesis"}]}]}
